Laboratory results from patent publication US20250049827A1, “A PHARMACEUTICAL COMPOSITION FOR THE TREATMENT OF OTIC INFECTIONS” (Intervet Inc., priority 2021, published 2025).
Read-outs that look alike come from different tables or passages of the source.

How the values were obtained:
[1] = cited from earlier work
[2] = system: gentamicin resistant Pseudomonas aeruginosa; details: MIC studies performed in the US; cited from earlier work
[3] = Pilot ear depletion study: gentamicin concentration in ear wax; type: in vivo
Method: An ear depletion study was performed to assess gentamicin concentration in ear wax. It was determined that the gentamicin concentrations detected in the ear wax were high enough to be effective against gentamicin resistant Pseudomonas aeruginosa.

| Molecule | solubility ([1]; in acetone and chloroform) | solubility ([1]; in methanol, ethanol, and isopropanol) | solubility ([1]; in tetrahydro furan) | solubility ([1]; in water) | highest MIC [2] | Total Gentamicin Concentration (mg/g) [Mean ± STD] ([3]; 24 hours post dose, Left ear) | Total Gentamicin Concentration (mg/g) [Mean ± STD] ([3]; 24 hours post dose, Right ear) | Total Gentamicin Concentration (mg/g) [Mean ± STD] ([3]; 72 hours post dose, Left ear) | Total Gentamicin Concentration (mg/g) [Mean ± STD] ([3]; 72 hours post dose, Right ear) | Total Gentamicin Concentration (mg/g) [Mean ± STD] ([3]; 168 hours post dose, Left ear) | Total Gentamicin Concentration (mg/g) [Mean ± STD] ([3]; 168 hours post dose, Right ear) | Total Gentamicin Concentration (mg/g) [Mean ± STD] ([3]; 240 hours post dose, Left ear) | Total Gentamicin Concentration (mg/g) [Mean ± STD] ([3]; 240 hours post dose, Right ear) | Total Gentamicin Concentration (mg/g) [Mean ± STD] ([3]; 336 hours post dose, Left ear) | Total Gentamicin Concentration (mg/g) [Mean ± STD] ([3]; 336 hours post dose, Right ear) |
| --- | --- | --- | --- | --- | --- | --- | --- | --- | --- | --- | --- | --- | --- | --- | --- |
| C[C@@H]1C[C@H]2[C@@H]3CCC4=CC(=O)C=C[C@]4(C)[C@@]3(Cl)[C@@H](O)C[C@]2(C)[C@@]1(OC(=O)c1ccco1)C(=O)CCl [Mometasone Furoate, 9,21-Dichloro-1 1 (beta), 17-dihydroxy-16 (alpha)-methylpregna-1,4-diene-3,20-dione 17-(2 Furoate)] | soluble | slightly soluble | freely soluble | practically insoluble | – | – | – | – | – | – | – | – | – | – | – |
| Gentamicin | – | – | – | – | 64 µg/mL | 11.51 ± 8.68 mg/g | 11.96 ± 10.11 mg/g | 8.15 ± 2.94 mg/g | 8.66 ± 5.00 mg/g | 3.78 ± 1.55 mg/g | 3.97 ± 3.38 mg/g | 1.87 ± 1.49 mg/g | 2.29 ± 1.36 mg/g | 1.46 ± 2.08 mg/g | 2.25 ± 2.44 mg/g |
